# pIC50: −log10 of the molar value.
# Target: CD73 (Homo sapiens (Human), UniProt P21589)
# Assay: Biochemical CD73 Assay (Malachite Green free phosphate detection)
# Details: recombinant human CD73 2 nM, AMP 40 μM, 45 min at 37° C.
# Experimental: Activity of recombinant CD73 was measured by quantification of free phosphate using the Malachite Green detection system (R&D Systems #DY996). Test compounds were solubilized in DMSO and dispensed into 384-well polystyrene plates in a 8-point 3× titration in duplicates. Then, 10 μL of 4 nM human CD73 enzyme (Novoprotein #C446) in phosphate-free assay buffer (10 mM HEPES, pH 7.4, 125 mM NaCl, 1 mM KCl, 10 mM glucose, 2 mM MgCl2) was added to the plates. The compound and enzyme were incubated for 15 min at RT. Then, 10 μL of 80 μM AMP (Sigma Aldrich #A1752) in the assay buffer was added and the reaction mixture was incubated for 45 min at 37° C. The final concentrations of CD73 and AMP in the reaction were 2 nM and 40 μM, respectively. The reaction was stopped by adding 5 μL of Malachite Green reagent A and incubating for 10 min at RT, followed by addition of 5 μL of Malachite Green reagent B and incubation for 20 min at RT. Absorbance was then read at 620 nm with the Flexstation spectrophotometer (Molecular Devices). The IC50 values were determined using a four-parameter nonlinear regression curve fit.
# CD73, sequence (P21589 27-574): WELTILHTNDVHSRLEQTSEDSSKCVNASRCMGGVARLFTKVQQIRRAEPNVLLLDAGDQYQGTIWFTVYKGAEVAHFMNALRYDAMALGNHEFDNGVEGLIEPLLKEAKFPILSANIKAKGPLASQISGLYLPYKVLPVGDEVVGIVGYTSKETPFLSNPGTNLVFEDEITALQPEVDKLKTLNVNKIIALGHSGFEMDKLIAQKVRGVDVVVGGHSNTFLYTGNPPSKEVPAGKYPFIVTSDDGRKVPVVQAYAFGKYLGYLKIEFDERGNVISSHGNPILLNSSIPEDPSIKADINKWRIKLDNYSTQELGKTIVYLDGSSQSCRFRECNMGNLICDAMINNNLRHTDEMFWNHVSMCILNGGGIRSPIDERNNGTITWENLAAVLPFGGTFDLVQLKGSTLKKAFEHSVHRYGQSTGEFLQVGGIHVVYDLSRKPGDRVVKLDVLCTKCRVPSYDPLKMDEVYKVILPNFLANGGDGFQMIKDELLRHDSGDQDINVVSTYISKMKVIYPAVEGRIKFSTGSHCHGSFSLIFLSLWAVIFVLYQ
row,Structure (SMILES),pIC50
1,"COC[C@@](OC[C@H]1O[C@@H](n2ncc3c(NC4CCCC4)nc(Cl)nc32)[C@H](O)[C@@H]1O)(C(=O)N=S(C)(=O)NC(=O)C1COC1)P(=O)(O)O (single isomer, unassigned) [Example 21]",8.29
2,"COC[C@@](OC[C@H]1O[C@@H](n2ncc3c(NC4CCCC4)nc(Cl)nc32)[C@H](O)[C@@H]1O)(C(=O)N=[S@@](C)(=O)NC(=O)c1cnn(C)c1)P(=O)(O)O (single isomer, unassigned) [Example 23]",9.33
3,"COC[C@@](OC[C@H]1O[C@@H](n2ncc3c(NC4CCCC4)nc(Cl)nc32)[C@H](O)[C@@H]1O)(C(=O)N=[S@](C)(=O)NC(=O)c1cnn(C)c1)P(=O)(O)O (single isomer, unassigned) [Example 24]",8.64
4,"COC[C@@](OC[C@H]1O[C@@H](n2ncc3c(NC4CCCC4)nc(Cl)nc32)[C@H](O)[C@@H]1O)(C(=O)N=[S@@](C)(=O)NC(=O)c1ccc(F)cc1)P(=O)(O)O (single isomer, unassigned) [Example 25]",8.95
5,"COC[C@@](OC[C@H]1O[C@@H](n2ncc3c(NC4CCCC4)nc(Cl)nc32)[C@H](O)[C@@H]1O)(C(=O)N=[S@](C)(=O)NC(=O)c1ccc(F)cc1)P(=O)(O)O (single isomer, unassigned) [Example 26]",8.63
6,"COC[C@](OC[C@H]1O[C@@H](n2ncc3c(NC4CCCC4)nc(Cl)nc32)[C@H](O)[C@@H]1O)(C(=O)N=[S@](C)(N)=O)P(=O)(O)O [Example 2, ((2R)-1-((Amino(methyl)(oxo)-λ^6-sulfaneylidene)amino)-2-(((2R,3S,4R,5R)-5-(6-chloro-4-(cyclopentylamino)-1H-pyrazolo[3,4-d]pyrimidin-1-yl)-3,4-dihydroxytetrahydrofuran-2-yl)methoxy)-3-methoxy-1-oxopropan-2-yl)phosphonic Acid]",7.72
7,"COC[C@](OC[C@H]1O[C@@H](n2ncc3c(NC4CCCC4)nc(Cl)nc32)[C@H](O)[C@@H]1O)(C(=O)N=[S@@](C)(N)=O)P(=O)(O)O [Example 4, ((2R)-1-((Amino(methyl)(oxo)-λ^6-sulfaneylidene)amino)-2-(((2R,3S,4R,5R)-5-(6-chloro-4-(cyclopentylamino)-1H-pyrazolo[3,4-d]pyrimidin-1-yl)-3,4-dihydroxytetrahydrofuran-2-yl)methoxy)-3-methoxy-1-oxopropan-2-yl)phosphonic Acid]",6.56
8,"COC[C@@](OC[C@H]1O[C@@H](n2ncc3c(NC4CCCC4)nc(Cl)nc32)[C@H](O)[C@@H]1O)(C(=O)N=[S@@](C)(=O)NC(C)=O)P(=O)(O)O [Example 5, ((S)-1-(((R)-Acetamido(methyl)(oxo)-λ^6-sulfaneylidene)amino)-2-(((2R,3S,4R,5R)-5-(6-chloro-4-(cyclopentylamino)-1H-pyrazolo[3,4-d]pyrimidin-1-yl)-3,4-dihydroxytetrahydrofuran-2-yl)methoxy)-3-methoxy-1-oxopropan-2-yl)phosphonic Acid]",8.80
9,"COC[C@](OC[C@H]1O[C@@H](n2ncc3c(NC4CCCC4)nc(Cl)nc32)[C@H](O)[C@@H]1O)(C(=O)N=[S@@](C)(=O)NC(C)=O)P(=O)(O)O [Example 6, ((R)-1-(((R)-Acetamido(methyl)(oxo)-λ^6-sulfaneylidene)amino)-2-(((2R,3S,4R,5R)-5-(6-chloro-4-(cyclopentylamino)-1H-pyrazolo[3,4-d]pyrimidin-1-yl)-3,4-dihydroxytetrahydrofuran-2-yl)methoxy)-3-methoxy-1-oxopropan-2-yl)phosphonic Acid]",6.66
10,"COC[C@@](OC[C@H]1O[C@@H](n2ncc3c(NC4CCCC4)nc(Cl)nc32)[C@H](O)[C@@H]1O)(C(=O)N=[S@@](C)(=O)NC(=O)OC)P(=O)(O)O [Example 7, ((S)-2-(((2R,3S,4R,5R)-5-(6-Chloro-4-(cyclopentylamino)-1H-pyrazolo[3,4-d]pyrimidin-1-yl)-3,4-dihydroxytetrahydrofuran-2-yl)methoxy)-3-methoxy-1-(((R)-((methoxycarbonyl)amino)(methyl)(oxo)-λ^6-sulfaneylidene)amino)-1-oxopropan-2-yl)phosphonic Acid]",8.77
11,"COC[C@](OC[C@H]1O[C@@H](n2ncc3c(NC4CCCC4)nc(Cl)nc32)[C@H](O)[C@@H]1O)(C(=O)N=[S@@](C)(=O)NC(=O)OC)P(=O)(O)O [Example 8, ((R)-2-(((2R,3S,4R,5R)-5-(6-Chloro-4-(cyclopentylamino)-1H-pyrazolo[3,4-d]pyrimidin-1-yl)-3,4-dihydroxytetrahydrofuran-2-yl)methoxy)-3-methoxy-1-(((R)-((methoxycarbonyl)amino)(methyl)(oxo)-λ^6-sulfaneylidene)amino)-1-oxopropan-2-yl)phosphonic Acid]",6.06
12,"COC[C@@](OC[C@H]1O[C@@H](n2ncc3c(NC4CCCC4)nc(Cl)nc32)[C@H](O)[C@@H]1O)(C(=O)N=[S@](C)(=O)NC(=O)C1COC1)P(=O)(O)O [Example 22, ((2S)-2-(((2R,3S,4R,5R)-5-(6-chloro-4-(cyclopentylamino)-1H-pyrazolo[3,4-d]pyrimidin-1-yl)-3,4-dihydroxytetrahydrofuran-2-yl)methoxy)-3-methoxy-1-((methyl(oxetane-3-carboxamido)(oxo)-λ^6-sulfaneylidene)amino)-1-oxopropan-2-yl)phosphonic Acid]",9.68
13,"COC[C@@](OC[C@H]1O[C@@H](n2ncc3c(NC4CCCC4)nc(Cl)nc32)[C@H](O)[C@@H]1O)(C(=O)N=[S@@](C)(=O)NC(=O)c1cccnc1)P(=O)(O)O [Example 27, ((2S)-2-(((2R,3S,4R,5R)-5-(6-chloro-4-(cyclopentylamino)-1H-pyrazolo[3,4-d]pyrimidin-1-yl)-3,4-dihydroxytetrahydrofuran-2-yl)methoxy)-3-methoxy-1-((methyl(nicotinamido)(oxo)-λ^6-sulfaneylidene)amino)-1-oxopropan-2-yl)phosphonic Acid]",8.11
14,"COC[C@@](OC[C@H]1O[C@@H](n2ncc3c(NC4CCCC4)cc(Cl)nc32)[C@H](O)[C@@H]1O)(C(=O)N=[S@](C)(=O)NC(=O)C1CC1)P(=O)(O)O [Example 28, ((S)-2-(((2R,3S,4R,5R)-5-(6-chloro-4-(cyclopentylamino)-1H-pyrazolo[3,4-b]pyridin-1-yl)-3,4-dihydroxytetrahydrofuran-2-yl)methoxy)-1-(((S)-cyclopropanecarboxamido(methyl)(oxo)-λ^6-sulfaneylidene)amino)-3-methoxy-1-oxopropan-2-yl)phosphonic Acid]",9.00
15,"CNC(=O)N[S@](C)(=O)=NC(=O)[C@@](COC)(OC[C@H]1O[C@@H](n2ncc3c(NC4CCCC4)cc(Cl)nc32)[C@H](O)[C@@H]1O)P(=O)(O)O [Example 29, ((S)-2-(((2R,3S,4R,5R)-5-(6-chloro-4-(cyclopentylamino)-1H-pyrazolo[3,4-b]pyridin-1-yl)-3,4-dihydroxytetrahydrofuran-2-yl)methoxy)-3-methoxy-1-(((R)-methyl(3-methylureido)(oxo)-λ^6-sulfaneylidene)amino)-1-oxopropan-2-yl)phosphonic Acid]",8.00
16,"CNC(=O)N[S@@](C)(=O)=NC(=O)[C@@](COC)(OC[C@H]1O[C@@H](n2ncc3c(NC4CCCC4)cc(Cl)nc32)[C@H](O)[C@@H]1O)P(=O)(O)O [Example 30, ((S)-2-(((2R,3S,4R,5R)-5-(6-chloro-4-(cyclopentylamino)-1H-pyrazolo[3,4-b]pyridin-1-yl)-3,4-dihydroxytetrahydrofuran-2-yl)methoxy)-3-methoxy-1-(((S)-methyl(3-methylureido)(oxo)-λ^6-sulfaneylidene)amino)-1-oxopropan-2-yl)phosphonic Acid]",9.22
17,"COC[C@@](OC[C@H]1O[C@@H](n2ncc3c(NC4CCCC4)cc(Cl)nc32)[C@H](O)[C@@H]1O)(C(=O)N=[S@@](C)(=O)NC(C)=O)P(=O)(O)O [Example 31, ((S)-1-(((R)-acetamido(methyl)(oxo)-λ^6-sulfaneylidene)amino)-2-(((2R,3S,4R,5R)-5-(6-chloro-4-(cyclopentylamino)-1H-pyrazolo[3,4-b]pyridin-1-yl)-3,4-dihydroxytetrahydrofuran-2-yl)methoxy)-3-methoxy-1-oxopropan-2-yl)phosphonic Acid]",9.30
18,"COC[C@@](OC[C@H]1O[C@@H](n2ncc3c(NC4CCCC4)cc(Cl)nc32)[C@H](O)[C@@H]1O)(C(=O)N=[S@](C)(=O)NC(C)=O)P(=O)(O)O [Example 32, ((S)-1-(((S)-acetamido(methyl)(oxo)-λ^6-sulfaneylidene)amino)-2-(((2R,3S,4R,5R)-5-(6-chloro-4-(cyclopentylamino)-1H-pyrazolo[3,4-b]pyridin-1-yl)-3,4-dihydroxytetrahydrofuran-2-yl)methoxy)-3-methoxy-1-oxopropan-2-yl)phosphonic Acid]",9.00
19,"COC[C@@](OC[C@H]1O[C@@H](n2ncc3c(NC4CCCC4)cc(Cl)nc32)[C@H](O)[C@@H]1O)(C(=O)N=[S@@](C)(=O)NC(=O)C(C)C)P(=O)(O)O [Example 33, ((2S)-2-(((2R,3S,4R,5R)-5-(6-chloro-4-(cyclopentylamino)-1H-pyrazolo[3,4-b]pyridin-1-yl)-3,4-dihydroxytetrahydrofuran-2-yl)methoxy)-1-((isobutyramido(methyl)(oxo)-λ^6-sulfaneylidene)amino)-3-methoxy-1-oxopropan-2-yl)phosphonic Acid]",7.96
